Read-outs that look alike come from different tables or passages of the source.
What was measured:
Format in all cases: binding, sheep
[1] = test system: IgG fraction of antiserum raised to Immunogen I
Procedure, shortened: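 Plates were coated with the IgG fraction of sheep antiserum raised to Immunogen I and incubated with standards (JWH-018, 0-40 ng/ml) plus hapten-HRP conjugate for 1 h at 25° C. Detection used TMB, read at 450 nm. IC50 was taken from a 4-parameter fit as the concentration giving half the zero-standard OD.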

[2] = test system: IgG fraction of antiserum raised to Immunogen II; assay: Competitive ELISA, antibody RS1833B12 to Immunogen II, tracer ESC4555 (Example 36)
[3] = test system: IgG fraction of antiserum raised to Immunogen VIII
[4] = test system: IgG fraction of antiserum raised to Immunogen VII; settings: Antibody to Immunogen VII; cross-reactants at 100 ng/ml; 1000 ng/ml; standard JWH-015
[5] = test system: IgG fraction of antiserum raised to Immunogen IV
[6] = Antibody to Immunogen I, cross-reactants at 100 ng/ml, 1000 ng/ml, standard JWH-018
[7] = Antibody to Immunogen II, cross-reactants at 100 ng/ml, 1000 ng/ml, standard JWH-018
[8] = Antibody to Immunogen VIII, cross-reactants at 100 ng/ml, 1000 ng/ml, standard JWH-018
[9] = Antibody to Immunogen IV, cross-reactants at 100 ng/ml, 1000 ng/ml, standard JWH-018
[10] = Table 7 standard curve, standard concentration which produces 50% B/B0

`CCCCCn1cc(C(=O)c2cccc3ccccc23)c2c(O)cccc21` [4-OH JWH-018, JWH-018 4-hydroxyindole metabolite] was tested, and the “% B/B0” value [1, 6] was 46.39%, the “% B/B0” value [2, 7] was 29.49% and the “% B/B0” value [3, 8] was 16.72%. For the same molecule, the “% B/B0” value [4] was 89.96% and the “% B/B0” value [5, 9] was 20.42%.
With `CCCCCn1cc(C(=O)c2cccc3ccccc23)c2cc(O)ccc21` [5-OH JWH-018, JWH-018 5-hydroxyindole metabolite] the “% B/B0” value [1, 6] was 11.79%, the “% B/B0” value [2, 7] was 12.14% and the “% B/B0” value [3, 8] was 87.67%. The “% B/B0” value [4] was 85.76% and the “% B/B0” value [5, 9] was 78.56%.
With `CCCCCn1cc(C(=O)c2cccc3ccccc23)c2ccc(O)cc21` [6-OH JWH-018, JWH-018 6-hydroxyindole metabolite] the “% B/B0” value [1, 6] was 8.07%, the “% B/B0” value [2, 7] was 24.39% and the “% B/B0” value [3, 8] was 89.86%. The “% B/B0” value [4] was 68.17% and the “% B/B0” value [5, 9] was 51.00%.
`O=C(c1cccc2ccccc12)c1cn(CCCCCF)c2ccccc12` [AM-2201, 1-(5-Fluoropentyl)indol-3-yl (1-naphthyl) methanone] was tested, and the “% B/B0” value [1, 6] was 3.72%, the “% B/B0” value [2, 7] was 11.72% and the “% B/B0” value [3, 8] was 16.74%. The “% B/B0” value [4] was 55.28% and the “% B/B0” value [5, 9] was 6.20%.
For `O=C(c1cccc2ccccc12)c1cn(CCCCCO)c2ccccc12` [JWH-018 N-(5-hydroxypentyl) metabolite], the “% B/B0” value [1, 6] was 3.50%, the “% B/B0” value [2, 7] was 53.38% and the “% B/B0” value [3, 8] was 57.37%. The “% B/B0” value [4] was 53.32% and the “% B/B0” value [5, 9] was 78.42%.
In the case of `O=C(O)CCCCn1cc(C(=O)c2cccc3ccccc23)c2ccccc21` [JWH-018 N-pentanoic acid metabolite], the “% B/B0” value [1, 6] is reported as 4.51%, the “% B/B0” value [2, 7] is reported as 85.61% and the “% B/B0” value [3, 8] is reported as 100.31%. The “% B/B0” value [4] was 53.02% and the “% B/B0” value [5, 9] was 99.89%.
For `CCCCCn1cc(C(=O)c2cccc3ccccc23)c2ccccc21` [JWH-018], the “% B/B0” value [1, 6] was 5.19%, the “% B/B0” value ([1]; JWH-018 0.625 ng/ml) was 77% and the “% B/B0” value ([1]; JWH-018 1.25 ng/ml) was 62%. For the same molecule, the “% B/B0” value ([1]; JWH-018 2.5 ng/ml) was 44%, the “% B/B0” value ([1]; JWH-018 5 ng/ml) was 31% and the “% B/B0” value ([1]; JWH-018 10 ng/ml) was 20%. For the same molecule, the “% B/B0” value ([1]; JWH-018 20 ng/ml) was 14%, the “% B/B0” value ([1]; JWH-018 40 ng/ml) was 9% and the IC50 [1, 10] was 2.016 ng/mL. The “% B/B0” value [2, 7] was 9.29%, the “% B/B0” value ([2]; JWH-018 0.625 ng/ml) was 68% and the “% B/B0” value ([2]; JWH-018 1.25 ng/ml) was 53%. The “% B/B0” value ([2]; JWH-018 2.5 ng/ml) was 34%, the “% B/B0” value ([2]; JWH-018 5 ng/ml) was 25% and the “% B/B0” value ([2]; JWH-018 10 ng/ml) was 17%. For the same molecule, the “% B/B0” value ([2]; JWH-018 20 ng/ml) was 13%, the “% B/B0” value ([2]; JWH-018 40 ng/ml) was 10% and the IC50 [2, 10] was 1.333 ng/mL. The “% B/B0” value [3, 8] was 17.66%, the “% B/B0” value ([3]; JWH-018 1 ng/ml) was 79% and the “% B/B0” value ([3]; JWH-018 3 ng/ml) was 63%. For the same molecule, the “% B/B0” value ([3]; JWH-018 5 ng/ml) was 51%, the “% B/B0” value ([3]; JWH-018 10 ng/ml) was 40% and the “% B/B0” value ([3]; JWH-018 20 ng/ml) was 29%. For the same molecule, the “% B/B0” value ([3]; JWH-018 40 ng/ml) was 22%, the “% B/B0” value ([3]; JWH-018 80 ng/ml) was 16% and the IC50 ([3]; Table 9 standard curve, standard concentration which produces 50% B/B0) was 5.230 ng/mL. The “% B/B0” value [4] was 67.66%, the “% B/B0” value [5, 9] was 6.80% and the “% B/B0” value ([5]; JWH-018 1.25 ng/ml) was 87%. For the same molecule, the “% B/B0” value ([5]; JWH-018 2.5 ng/ml) was 68%, the “% B/B0” value ([5]; JWH-018 5 ng/ml) was 42% and the “% B/B0” value ([5]; JWH-018 10 ng/ml) was 26%. The “% B/B0” value ([5]; JWH-018 20 ng/ml) was 16%, the “% B/B0” value ([5]; JWH-018 40 ng/ml) was 10% and the “% B/B0” value ([5]; JWH-018 80 ng/ml) was 7%. For the same molecule, the IC50 ([5]; Table 8 standard curve, standard concentration which produces 50% B/B0) was 4.133 ng/mL.
`CCCCn1cc(C(=O)c2cccc3ccccc23)c2ccccc21` [JWH-073] was tested, and the “% B/B0” value [1, 6] was 3.56%, the “% B/B0” value [2, 7] was 15.24% and the “% B/B0” value [3, 8] was 25.50%. For the same molecule, the “% B/B0” value [4] was 58.34% and the “% B/B0” value [5, 9] was 13.63%.
In the case of `O=C(c1cccc2ccccc12)c1cn(CCN2CCOCC2)c2ccccc12` [JWH-200], the “% B/B0” value [1, 6] is reported as 3.51%, the “% B/B0” value [2, 7] is reported as 54.02% and the “% B/B0” value [3, 8] is reported as 98.81%. For the same molecule, the “% B/B0” value [4] was 42.85% and the “% B/B0” value [5, 9] was 77.08%.
With `CCCCCn1cc(C(=O)c2ccc(Cl)c3ccccc23)c2ccccc21` [JWH-398] the “% B/B0” value [1, 6] was 60.31%, the “% B/B0” value [2, 7] was 30.31% and the “% B/B0” value [3, 8] was 18.66%. For the same molecule, the “% B/B0” value [4] was 94.47% and the “% B/B0” value [5, 9] was 6.00%.
`O=C(c1cccc2ccccc12)c1c[nH]c2ccccc12` [N-desalkyl JWH-018, 3-(1-naphthoyl)-1H-Indole] was tested, and the “% B/B0” value [1, 6] was 15.63%, the “% B/B0” value [2, 7] was 99.18% and the “% B/B0” value [3, 8] was 90.49%. The “% B/B0” value [4] was 80.08% and the “% B/B0” value [5, 9] was 95.55%.

Source: US9434687B2, “Detection of synthetic cannabinoids” (priority 2011, dated 2016)
